This passage reports IC50 results from patent US10399933B2, “Inhibitors of indoleamine-2,3-dioxygenase for the treatment of cancer” (BRISTOL-MYERS SQUIBB COMPANY, priority 2015, dated 2019).

The test has as its target human IDO1 (Homo sapiens, UniProt P14902). Kind of test: Human IDO-1 inhibitory activity in Hela cells (interferon-gamma stimulated). The class given is cell-based. Set-up: endogenous in cells; host or cells: HeLa cells stimulated with interferon-gamma. To be noted: 18 hours, unstimulated wells = 100% inhibition. On the procedure: HeLa cells were seeded at 20,000 cells per 30 μL per well with RPMI/phenol red free media containing 10% FBS in a 384-well tissue culture plate (black with clear bottoms). 50 nL of compound was added to cells and incubated at 37° C. for one hour. 20 μL of the recombinant human Interferon-gamma (R&D System, Cat. #285-IF, at final concentration of 10 ng/ml) or recombinant murine Interferon-gamma (PEPROTECH® Inc., Cat. #315-05, final concentration of 5 ng/ml) was added to activate IDO signaling. The cells were incubated for 18 hours in 37° C. incubator with 5% CO2.
Compound treatment was stopped by adding 5 μl trichloroacetic acid to a final concentration of 3%. Subsequently, the cell plate was further incubated at 50° C. for 30 minute. An equal volume supernatant (20 μL) and 2% (w/v) Ehrlich reagent (4-dimethylaminobenzaldehyde) in glacial acetic acid were mixed in a new clear bottom 384-well plate. This plate was incubated at room temperature for 30 minutes. Absorbance at 490 nm was measured on Envision plate reader.
Compound IC50 values were calculated using counts from unstimulated (no INF-gamma treatment) wells as 100% inhibition. INF-gamma treatment without compound treatment as 0% inhibition.

Usually IC50 stands for the concentration that inhibits the measured activity by half. A low value points to inhibition by little substance.

Chain of human IDO1 (P14902 whole entry): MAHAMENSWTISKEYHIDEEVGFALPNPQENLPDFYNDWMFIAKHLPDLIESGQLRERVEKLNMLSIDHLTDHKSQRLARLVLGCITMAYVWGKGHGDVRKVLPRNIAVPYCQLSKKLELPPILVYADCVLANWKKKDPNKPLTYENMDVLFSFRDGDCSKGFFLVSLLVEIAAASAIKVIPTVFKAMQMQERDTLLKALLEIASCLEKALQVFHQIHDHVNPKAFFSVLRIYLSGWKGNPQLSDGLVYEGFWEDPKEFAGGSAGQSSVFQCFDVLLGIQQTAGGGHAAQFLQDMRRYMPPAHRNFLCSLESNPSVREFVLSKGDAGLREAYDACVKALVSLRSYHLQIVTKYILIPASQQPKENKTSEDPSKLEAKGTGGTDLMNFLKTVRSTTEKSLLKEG

On to “3-(4-((1,1-dioxido- tetrahydro-2H- thiopyran-4-yl) (ethyl)amino)-3- ((4-fluorophenyl) amino)phenyl)-4- isopropoxy- butanoic acid [Example 341]”, for which the IC50 was greater than 50 nM.

Regarding “3-(4-((1,1-dioxidotetrahydro-2H- thiopyran-4-yl)(ethyl)amino)-3- ((4-fluorophenyl)amino)phenyl)-4- isopropoxybutanoic acid [Example 345]”, the IC50 is greater than 50 nM.

Turning to `CCN(c1ccc(C(COC)CC(=O)O)cc1Nc1ccc(C#N)cc1)C1CCCOC1` (single isomer, unassigned) [264 E1], the IC50 was less than 50 nM.

`CCN(c1ccc(C(COC)CC(=O)O)cc1Nc1ccc(C#N)cc1)C1CCCOC1` (single isomer, unassigned) [264 E2]: the IC50 is less than 5 nM.

With `CCN(c1ccc(C(COC)CC(=O)O)cc1Nc1ccc(C#N)cc1)C1CCCOC1` (single isomer, unassigned) [265 E1], the IC50 was less than 5 nM.

`CCN(c1ccc(C(COC)CC(=O)O)cc1Nc1ccc(C#N)cc1)C1CCCOC1` (single isomer, unassigned) [265 E2]: the IC50 is less than 5 nM.

In turn, `CCN(c1ccc(C(COC)CC(=O)O)cc1Nc1cnc(OC)nc1)C1CCS(=O)(=O)CC1` (single isomer, unassigned) [Example 168 Enantiomer 1, 3-(4-((1,1-Dioxidotetrahydro-2H-thiopyran-4-yl)(ethyl)amino)-3-((2-methoxypyrimidin-5-yl)amino)phenyl)-4-methoxybutanoic Acid] yielded an IC50 greater than 50 nM.

In turn, `CCN(c1ccc(C(COC)CC(=O)O)cc1Nc1cnc(OC)nc1)C1CCS(=O)(=O)CC1` (single isomer, unassigned) [Example 168 Enantiomer 2, 3-(4-((1,1-Dioxidotetrahydro-2H-thiopyran-4-yl)(ethyl)amino)-3-((2-methoxypyrimidin-5-yl)amino)phenyl)-4-methoxybutanoic Acid] came in with an IC50 greater than 50 nM.

Take `CCOc1ncc(Nc2cc(C(COC)CC(=O)O)ccc2N(CC)C2CCS(=O)(=O)CC2)cn1` (single isomer, unassigned) [Example 175, 3-(4-((1,1-dioxidotetrahydro-2H-thiopyran-4-yl)(ethyl)amino)-3-((2-ethoxypyrimidin-5-yl)amino)phenyl)-4-methoxybutanoic acid]: the IC50 was greater than 50 nM.

With `CCCN(c1ccc(C(COC)CC(=O)O)cc1Nc1ccc(C#N)cc1)C1CCS(=O)(=O)CC1` (single isomer, unassigned) [Example 182 Enantiomer 1, 3-(3-((4-Cyanophenyl)amino)-4-((1,1-dioxidotetrahydro-2H-thiopyran-4-yl)(propyl)amino)phenyl)-4-methoxybutanoic Acid], the IC50 was less than 50 nM.

For the compound `CCCN(c1ccc(C(COC)CC(=O)O)cc1Nc1ccc(C#N)cc1)C1CCS(=O)(=O)CC1` (single isomer, unassigned) [Example 182 Enantiomer 2, 3-(3-((4-Cyanophenyl)amino)-4-((1,1-dioxidotetrahydro-2H-thiopyran-4-yl)(propyl)amino)phenyl)-4-methoxybutanoic Acid], the IC50 was greater than 50 nM.

In turn, `CCN(c1ccc(C(CC(=O)O)C2CC2)cc1NC(=O)Nc1ccc(C#N)cc1)C1CCS(=O)(=O)CC1` (single isomer, unassigned) [Example 348 E1, 3-(3-(3-(4-Cyanophenyl)ureido)-4-((1,1-dioxidotetrahydro-2H-thiopyran-4-yl)(ethyl)amino)phenyl)-3-cyclopropylpropanoic Acid] yielded an IC50 greater than 50 nM.

For the compound `CCN(c1ccc(C(CC(=O)O)C2CC2)cc1NC(=O)Nc1ccc(C#N)cc1)C1CCS(=O)(=O)CC1` (single isomer, unassigned) [Example 348 E2, 3-(3-(3-(4-Cyanophenyl)ureido)-4-((1,1-dioxidotetrahydro-2H-thiopyran-4-yl)(ethyl)amino)phenyl)-3-cyclopropylpropanoic Acid], the IC50 is greater than 50 nM.

As to `CCN(c1ccc([C@H](COC)CC(=O)O)cc1Nc1ccc(C#N)cn1)C1CCOCC1` (single isomer, unassigned) [Example 389], the IC50 was less than 50 nM.

In turn, `CCN(c1ccc([C@H](COC)CC(=O)O)cc1Nc1ccc(C#N)c(F)c1)C1CCOCC1` (single isomer, unassigned) [Example 390] had an IC50 of less than 5 nM.

For the compound `CCN(c1ccc([C@H](COC)CC(=O)O)cc1Nc1ccc(C#N)cc1F)C1CCOCC1` (single isomer, unassigned) [Example 392], the IC50 is less than 5 nM.

`CCN(c1ccc([C@H](COC)CC(=O)O)cc1Nc1ccc(Cl)cn1)C1CCOCC1` (single isomer, unassigned) [Example 393] returned an IC50 of less than 50 nM.

As for `CCN(c1ccc([C@H](COC)CC(=O)O)cc1Nc1ncc(Cl)cn1)C1CCOCC1` (single isomer, unassigned) [Example 394], the IC50 was less than 50 nM.

As to `CCN(c1ccc([C@H](COC)CC(=O)O)cc1Nc1ncc(F)cn1)C1CCOCC1` (single isomer, unassigned) [Example 396], the IC50 is greater than 50 nM.

The compound `CCN(c1ccc([C@H](COC)CC(=O)O)cc1Nc1cccc(OC(F)(F)C(F)F)c1)C1CCOCC1` (single isomer, unassigned) [Example 397] had an IC50 greater than 50 nM.

`CCN(c1ccc([C@H](COC)CC(=O)O)cc1Nc1ccc(Cl)cc1F)C1CCOCC1` (single isomer, unassigned) [Example 399] showed an IC50 of less than 5 nM.

`CCN(c1ccc([C@H](COC)CC(=O)O)cc1Nc1ccc(F)cn1)C1CCOCC1` (single isomer, unassigned) [Example 400] showed an IC50 of less than 50 nM.

In turn, `CCN(c1ccc([C@H](COC)CC(=O)O)cc1Nc1ccc(F)cc1F)C1CCOCC1` (single isomer, unassigned) [Example 402] had an IC50 of less than 50 nM.

The compound `CCN(c1ccc([C@H](COC)CC(=O)O)cc1Nc1ccc(C#N)cc1C)C1CCOCC1` (single isomer, unassigned) [Example 404] registered an IC50 of less than 50 nM.

The compound `CCN(c1ccc([C@H](COC)CC(=O)O)cc1Nc1cccc(C#N)c1)C1CCOCC1` (single isomer, unassigned) [Example 405] had an IC50 greater than 50 nM.

`CCN(c1ccc([C@H](COC)CC(=O)O)cc1Nc1ccccc1C#N)C1CCOCC1` (single isomer, unassigned) [Example 406] came in with an IC50 greater than 50 nM.

The compound `CCOc1cc(Nc2cc([C@H](COC)CC(=O)O)ccc2N(CC)C2CCOCC2)ccc1C#N` (single isomer, unassigned) [Example 407] registered an IC50 of less than 50 nM.

On to `CCN(c1ccc([C@H](COC)CC(=O)O)cc1Nc1ccc(C#N)c(OCC(F)F)c1)C1CCOCC1` (single isomer, unassigned) [Example 408], for which the IC50 is less than 50 nM.

For the compound `CCN(c1ccc([C@H](COC)CC(=O)O)cc1Nc1ccc(C#N)c(OCC(F)(F)F)c1)C1CCOCC1` (single isomer, unassigned) [Example 409], the IC50 was less than 50 nM.

For the compound `CCc1ccc(Nc2cc([C@H](COC)CC(=O)O)ccc2N(CC)C2CCOCC2)cc1` (single isomer, unassigned) [Example 411], the IC50 was less than 5 nM.

`CCN(c1ccc([C@H](COC)CC(=O)O)cc1Nc1ccc(F)cc1)C1CCOCC1` (single isomer, unassigned) [Example 412] returned a 50% inhibitory concentration (IC50) of less than 5 nM.

Compound `CCN(c1ccc([C@H](COC)CC(=O)O)cc1Nc1ccc2nc(C)sc2c1)C1CCOCC1` (single isomer, unassigned) [Example 414] came in with an IC50 of less than 50 nM.

For the compound `CCN(c1ccc([C@H](COC)CC(=O)O)cc1Nc1ccc2c(c1)OC(F)(F)O2)C1CCOCC1` (single isomer, unassigned) [Example 415], the IC50 was less than 5 nM.

The compound `CCN(c1ccc([C@H](COC)CC(=O)O)cc1Nc1ccc(C#N)c(OC)c1)C1CCOCC1` (single isomer, unassigned) [Example 417] gave an IC50 of less than 50 nM.

Compound `CCN(c1ccc([C@H](COC)CC(=O)O)cc1Nc1ccc(C#N)c(Cl)c1)C1CCOCC1` (single isomer, unassigned) [Example 418] displayed an IC50 of less than 50 nM.

For `CCN(c1ccc([C@H](COC)CC(=O)O)cc1Nc1ccc(C#N)c(C)n1)C1CCOCC1` (single isomer, unassigned) [Example 419], the IC50 is greater than 50 nM.

In turn, `CCN(c1ccc([C@H](COC)CC(=O)O)cc1Nc1ccc(C#N)c(C(F)(F)F)c1)C1CCOCC1` (single isomer, unassigned) [Example 420] yielded an IC50 greater than 50 nM.

In the case of `CCN(c1ccc([C@H](COC)CC(=O)O)cc1Nc1ccc(S(=O)(=O)CC)cc1)C1CCOCC1` (single isomer, unassigned) [Example 421], the IC50 is greater than 50 nM.

Compound `COCC(CC(=O)O)c1ccc(N2C[C@@H](C)O[C@@H](C)C2)c(Nc2ccc(Cl)cc2)c1` (single isomer, unassigned) [Example 604] registered a half-inhibitory concentration (IC50) greater than 50 nM.

`COCC(CC(=O)O)c1ccc(N2C[C@@H](C)O[C@@H](C)C2)c(NC(=O)Nc2ccc(C#N)cc2)c1` (single isomer, unassigned) [Example 605 Diastereomer 2] registered an IC50 greater than 50 nM.

As to `COCC(CC(=O)O)c1ccc(N2C[C@@H](C)O[C@@H](C)C2)c(NC(=O)Nc2ccc(Cl)cc2F)c1` (single isomer, unassigned) [Example 607], the concentration for half-maximal inhibition (IC50) was greater than 50 nM.
